What was measured:
human mAChR M1 [1] = biological target: T1, human mAChR M1 (Homo sapiens, UniProt P11229); assay: mAChR M1 cell-based functional assay (calcium mobilization), agonist mode: compound alone, Emax relative to acetylcholine maximum; conditions: for EC50 / Agonist Activity Human M1 EC50: human mAChR M1; for Emax: relative to the maximum for acetylcholine
T1 sequence (P11229 1-460): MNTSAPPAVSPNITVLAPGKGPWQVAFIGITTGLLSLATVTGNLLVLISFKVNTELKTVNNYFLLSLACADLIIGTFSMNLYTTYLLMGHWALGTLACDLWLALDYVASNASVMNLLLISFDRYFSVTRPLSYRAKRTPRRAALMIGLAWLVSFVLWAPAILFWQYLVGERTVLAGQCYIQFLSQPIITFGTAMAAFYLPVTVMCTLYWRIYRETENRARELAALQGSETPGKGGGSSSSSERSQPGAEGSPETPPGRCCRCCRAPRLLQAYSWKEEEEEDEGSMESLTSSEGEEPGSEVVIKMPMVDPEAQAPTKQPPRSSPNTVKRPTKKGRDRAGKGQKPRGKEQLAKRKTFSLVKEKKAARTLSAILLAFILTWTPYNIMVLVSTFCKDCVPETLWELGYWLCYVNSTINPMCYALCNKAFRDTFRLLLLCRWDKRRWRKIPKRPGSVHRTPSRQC
Procedure, shortened: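 Agonist activity is the concentration-dependent rise in intracellular calcium (Fluo-4, 1 Hz read) after compound addition, measured before any acetylcholine was added, in stable hM1 CHO-K1 cells. Curves were 11-point, 1:3 dilutions fitted by four-parameter logistic. Emax is given as a fraction of maximal acetylcholine response.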

human mAChR M1 [2] = biological target: T1, human mAChR M1; assay: mAChR M1 cell-based functional assay (calcium mobilization), PAM mode: increase in the EC20 acetylcholine response
Procedure, shortened: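 PAM readout is the concentration-dependent rise in the EC20 acetylcholine calcium signal, fitted to a four-parameter logistic (EC50, Emax). Compounds were preincubated from 4 s before ACh at 144 s (EC20) and 230 s (EC80). hM1-expressing CHO-K1 cells loaded with Fluo-4, FDSS ratio read.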

Row | SMILES | EC50 (human mAChR M1 [1]) [nM] | Emax (human mAChR M1 [1]) [%] | EC50 (human mAChR M1 [2]) [nM] | Emax (human mAChR M1 [2]) [%] | Agonist Activity Human M1 EC50 (human mAChR M1 [1])
1 | [2H]C1([2H])c2ncccc2C(=O)N1Cc1c(F)cc(-c2cccc3c2cnn3C)cc1F [Compound 35, 6-(2,6-difluoro-4-(1-methyl-1H-indazol-4-yl)benzyl)-6,7-dihydro-5H-pyrrolo[3,4-b]pyridin-5-one-7,7-d^2] | > 10000 | 2 | 2420 | 63 | 
2 | [2H]C1([2H])c2ncccc2C(=O)N1Cc1c(F)cc(-c2ccc(C3CC3)c3nn(C)cc23)cc1F [Compound 122, 6-(4-(7-cyclopropyl-2-methyl-2H-indazol-4-yl)-2,6-difluorobenzyl)-6,7-dihydro-5H-pyrrolo[3,4-b]pyridin-5-one-7,7-d2] |  | 3 | 789 | 77 | Inactive
3 | [2H]C1([2H])c2ncccc2C(=O)N1Cc1c(F)cc(-c2ccc(OC3CCC3)c3nn(C)cc23)cc1F [Compound 125, 6-(4-(7-cyclobutoxy-2-methyl-2H-indazol-4-yl)-2,6-difluorobenzyl)-6,7-dihydro-5H-pyrrolo[3,4-b]pyridin-5-one-7,7-d2] | ≥ 10000 | 14 | 382 | 72 | 
4 | [2H]C1([2H])c2ncccc2C(=O)N1Cc1c(F)cc(-c2cc(F)c3nn(C)cc3c2)cc1F [Compound 7, 6-(2,6-difluoro-4-(7-fluoro-2-methyl-2H-indazol-5-yl)benzyl)-6,7-dihydro-5H-pyrrolo[3,4-b]pyridin-5-one-7,7-d2] |  | 4 | 952 | 53 | Inactive
5 | [2H]C1([2H])c2ncccc2C(=O)N1Cc1ccc(-c2ccc(C)c3nn(C([2H])([2H])[2H])cc23)cc1F [Compound 56, 6-(2-fluoro-4-(7-methyl-2-(methyl-d3)-2H-indazol-4-yl)benzyl)-6,7-dihydro-5H-pyrrolo[3,4-b]pyridin-5-one-7,7-d2] |  | 5 | 317 | 87 | Inactive
6 | [2H]C([2H])([2H])Oc1cnc2c(c1)C(=O)N(Cc1c(F)cc(-c3cccc4nn(C)cc34)cc1F)C2([2H])[2H] [Compound 63, 6-(2,6-Difluoro-4-(2-methyl-2H-indazol-4-yl)benzyl)-3-(methoxy-d3)-6,7-dihydro-5H-pyrrolo[3,4-b]pyridin-5-one-7,7-d2] |  | 3 | 125 | 89 | Inactive
7 | [2H]C1([2H])c2ncccc2C(=O)N1Cc1c(F)cc(-c2cc(F)c(Cl)c3nn(C([2H])([2H])[2H])cc23)cc1F [Compound 248, 6-(4-(7-chloro-6-fluoro-2-(methyl-d3)-2H-indazol-4-yl)-2,6-difluorobenzyl)-6,7-dihydro-5H-pyrrolo[3,4-b]pyridin-5-one-7,7-d2] |  | 2 | > 10000 | 34 | Inactive
8 | [2H]C1([2H])c2ncccc2C(=O)N1Cc1c(F)cc(-c2cc(C)cc3nn(C)cc23)cc1F [Compound 32, 6-(4-(2,6-dimethyl-2H-indazol-4-yl)-2,6-difluorobenzyl)-6,7-dihydro-5H-pyrrolo[3,4-b]pyridin-5-one-7,7-d^2] | 5460 | 16 | 594 | 86 | 

Further lines, results first:

Row | EC50 (human mAChR M1 [1]) [nM] | Emax (human mAChR M1 [1]) [%] | EC50 (human mAChR M1 [2]) [nM] | Emax (human mAChR M1 [2]) [%] | Agonist Activity Human M1 EC50 (human mAChR M1 [1]) | SMILES
9 |  | 6 | 722 | 74 | Inactive | [2H]C1([2H])c2ncccc2C(=O)N1Cc1c(F)cc(-c2ccc(OCSC)c3nn(C)cc23)cc1F [Compound 185, 6-(2,6-difluoro-4-(2-methyl-7-((methylthio)methoxy)-2H-indazol-4-yl)benzyl)-6,7-dihydro-5H-pyrrolo[3,4-b]pyridin-5-one-7,7-d2]
10 |  | 3 | 1410 | 75 | Inactive | [2H]C1([2H])c2ncccc2C(=O)N1Cc1c(F)cc(-c2ccc3c(cnn3C([2H])([2H])[2H])c2)cc1F [Compound 101, 6-(2,6-difluoro-4-(1-(methyl-d3)-1H-indazol-5-yl)benzyl)-6,7-dihydro-5H-pyrrolo[3,4-b]pyridin-5-one-7,7-d2]
11 | 4640 | 28 | 179 | 79 |  | [2H]C([2H])([2H])Oc1cnc2c(c1)C(=O)N(Cc1c(F)cc(-c3ccc(OC)c4nn(C)cc34)cc1F)C2([2H])[2H] [Compound 146, 6-(2,6-difluoro-4-(7-methoxy-2-methyl-2H-indazol-4-yl)benzyl)-3-(methoxy-d3)-6,7-dihydro-5H-pyrrolo[3,4-b]pyridin-5-one-7,7-d2]
12 |  | 4 | 853 | 79 | Inactive | [2H]C1([2H])c2ncccc2C(=O)N1Cc1ccc(-c2cc(C)c3nn(C)cc3c2)cc1 [Compound 17, 6-(4-(2,7-dimethyl-2H-indazol-5-yl)benzyl)-6,7-dihydro-5H-pyrrolo[3,4-b]pyridin-5-one-7,7-d2]
13 |  | 2 | 823 | 71 | Inactive | [2H]C1([2H])c2ncccc2C(=O)N1Cc1c(F)cc(-c2cccc3c2cnn3C([2H])([2H])[2H])cc1F [Compound 67, 6-(2,6-difluoro-4-(1-(methyl-d3)-1H-indazol-4-yl)benzyl)-6,7-dihydro-5H-pyrrolo[3,4-b]pyridin-5-one-7,7-d2]
14 |  | 2 | > 10000 | 39 | Inactive | [2H]C1([2H])c2ncccc2C(=O)N1Cc1ccc(-c2ccc3nn(C)cc3c2C)cc1 [Compound 238, 6-(4-(2,4-dimethyl-2H-indazol-5-yl)benzyl)-6,7-dihydro-5H-pyrrolo[3,4-b]pyridin-5-one-7,7-d2]
15 |  | 1 | > 10000 | 47 | Inactive | [2H]C1([2H])c2ncccc2C(=O)N1Cc1c(F)cc(-c2cc(F)c(Cl)c3nn(C)cc23)cc1F [Compound 245, 6-(4-(7-chloro-6-fluoro-2-methyl-2H-indazol-4-yl)-2,6-difluorobenzyl)-6,7-dihydro-5H-pyrrolo[3,4-b]pyridin-5-one-7,7-d2]
16 |  | 3 | ≥ 10000 | 38 | Inactive | [2H]C1([2H])c2ncccc2C(=O)N1Cc1c(F)cc(-c2cccc3nn(C([2H])([2H])[2H])cc23)cc1N(C)C [Compound 230, 6-(2-(dimethylamino)-6-fluoro-4-(2-(methyl-d3)-2H-indazol-4-yl)benzyl)-6,7-dihydro-5H-pyrrolo[3,4-b]pyridin-5-one-7,7-d2]
17 |  | 1 | 592 | 81 | Inactive | [2H]C1([2H])c2ncccc2C(=O)N1Cc1c(F)cc(-c2ccc(C(F)(F)F)c3nn(C([2H])([2H])[2H])cc23)cc1F [Compound 74, 6-(2,6-difluoro-4-(2-(methyl-d3)-7-(trifluoromethyl)-2H-indazol-4-yl)benzyl)-6,7-dihydro-5H-pyrrolo[3,4-b]pyridin-5-one-7,7-d2]
18 | ≥ 10000 | 12 | 1100 | 79 |  | [2H]C1([2H])c2ncccc2C(=O)N1Cc1ccc(-c2ccc(OCC3CCCO3)c3nn(C)cc23)cc1F (stereo not drawn) [Compound 147, 6-(2-fluoro-4-(2-methyl-7-((tetrahydrofuran-2-yl)methoxy)-2H-indazol-4-yl)benzyl)-6,7-dihydro-5H-pyrrolo[3,4-b]pyridin-5-one-7,7-d2]

Reference: patent publication US20240228489A1, “POSITIVE ALLOSTERIC MODULATORS OF THE MUSCARINIC ACETYLCHOLINE RECEPTOR M1” (Vanderbilt University, priority 2021, published 2024)
